Measurements published in USRE30241E, “Esters of 3-(hydroxy or hydroxymethyl)-4-hydroxyphenyl aminomethyl ketones” (Sterling Drug Inc., priority 1970, dated 1980).
Where two headings read alike, the source gives them in different places.

Legend:
[1] = tested on: carbachol- or histamine-induced bronchoconstriction; test: Bronchodilator Test Method I, anesthetized dog, intravenous activity; format: in vivo; details: Canis lupus familiaris, read-out: Bronchodilatation; for inhibition in vivo at 0.008 mg/kg: 8 mcg/kg i.v.; for inhibition in vivo at 0.032 mg/kg: 32 mcg/kg i.v.; for inhibition in vivo at 0.128 mg/kg: 128 mcg/kg i.v.; for inhibition in vivo at 0.068 mg/kg: 68 mcg/kg i.v.; for inhibition in vivo at 0.137 mg/kg: 137 mcg/kg i.v.; for inhibition in vivo at 0.274 mg/kg: 274 mcg/kg i.v.
Procedure, shortened: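 Pentobarbital-anesthetized (30 mg/kg i.v.), open-chest, artificially ventilated dogs were given i.v. carbachol (4-6 µg/kg) or histamine diphosphate (35-45 µg/kg). Test compound was given i.v. mixed with, after, or 1-10 min before the constrictor.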

[2] = tested on: guinea pig bronchioles constricted by carbachol; test: Bronchodilator Test Method II, in vitro perfused guinea pig lung; details: for Duration, Mean: dose 10 mcg (base)
Protocol: In this method bronchodilator activity in vitro was determined by testing the effect of graded doses of the test compounds on guinea pig bronchioles constricted by carbachol, using the technique reported by Sollman and von Oettingen, Proc. Soc, Exp. Biol. Med., 25,692 (1928) as modified by Tainter, Pedden, and James, J. Pharm. Exp. Ther., 51, 371 (1934) and by Luduena, von Euler, Tullar, and Lands, Arch. intern. Pharmacol., III, 392 (1957).

[3] = tested on: carbachol- or histamine-induced bronchoconstriction; test: Bronchodilator Test Method I, anesthetized dog, intraduodenal activity; format: in vivo; details: Canis lupus familiaris, read-out: Bronchodilation; for inhibition in vivo at 0.032 mg/kg: 32 mcg/kg (salt) intraduodenal; for inhibition in vivo at 0.128 mg/kg: 128 mcg/kg (salt) intraduodenal; for inhibition in vivo at 0.068 mg/kg: 68 mcg/kg (salt) intraduodenal; for inhibition in vivo at 0.136 mg/kg: 136 mcg/kg (salt) intraduodenal
Protocol: Male and female dogs weighing 9-18 kg. each were anesthetized with pentobarbital sodium (30 mg./kg. i.v.). Each animal, with thorax opened at the midsternum, was maintained under artificial ventilation using a constant volume pump (250 ml./stroke; 10 to 12 strokes per minute) attached to the tracheal cannula. The flow of air was controlled by a glass or plastic valve which closed and opened respectively on inflow and outflow of the air to and from the tracheal cannula. Bronchoconstriction and/or bronchodilatation were measured from changes in the basal airway pressure reflected by a transducer attached to the sidearm of the cannula relayed to a polygraph.
Control bronchoconstrictions were induced by intravenous injections of carbachol (choline chloride carbamate) in doses ranging from 4 to 6 micrograms per kilogram or histamine diphosphate in doses ranging from 35 to 45 micrograms per kilogram. In the majority of test animals, the above doses of constrictor agents produced a 100-200 percent increase in the normal airway pressure or amplitude.
Injections were repeated at 20-30 minutes.
In intraduodenal studies, in the dog prepared for bronchodilation measurements, the duodenal segment of the small intestine was made easily accessible through a small mid-line incision in the abdomen. The test solution was injected into the duodenum using a fine needle. Commencing 5 minutes after medication, the degree and duration of bronchodilation were tested by injecting a control dose of carbachol or histamine at intervals of 30-60 minutes until the recovery or near-recovery was apparent. In some dogs showing an early recovery, a reference drug was also tested in the same dog 1.5-2 hours after the first medicine.

## CC(=O)OCc1cc(C(O)CNC(C)(C)C)ccc1OC(=O)c1ccc(C)cc1 (stereo not drawn) [Example 150, 3-acetoxymethyl-4-(p-toluyloxy)-alpha-(tert-butylaminomethyl)benzyl alcohol methanesulfonate]
[1]; 5 min, 5 min
  inhibition in vivo at 0.008 mg/kg: 42%
  inhibition in vivo at 0.032 mg/kg: 64%
  inhibition in vivo at 0.128 mg/kg: 85%
[1]; 0.5 h, 30 min
  inhibition in vivo at 0.008 mg/kg: 37%
  inhibition in vivo at 0.032 mg/kg: 66%
  inhibition in vivo at 0.128 mg/kg: 87%
[1]; 1 h, 60 min
  inhibition in vivo at 0.008 mg/kg: 44%
  inhibition in vivo at 0.032 mg/kg: 54%
  inhibition in vivo at 0.128 mg/kg: 67%
[1]; 2 h, 120 min
  inhibition in vivo at 0.008 mg/kg: 44%
  inhibition in vivo at 0.032 mg/kg: 40%
  inhibition in vivo at 0.128 mg/kg: 60%
[1]; 3 h, 180 min
  inhibition in vivo at 0.008 mg/kg: 32%
  inhibition in vivo at 0.032 mg/kg: 30%
  inhibition in vivo at 0.128 mg/kg: 52%
[1]; 4 h, 240 min
  inhibition in vivo at 0.008 mg/kg: 20%
  inhibition in vivo at 0.032 mg/kg: 0%
  inhibition in vivo at 0.128 mg/kg: 24%
[2]; carbachol (Doryl) 1:5 million
  ED50 (printed in brackets, footnote **ED50): 9.3 µg (base)
[2]
  Duration, Mean: 25.5 ± 16.2 min
[3]; 5 min, 5 min
  inhibition in vivo at 0.032 mg/kg: 12%
  inhibition in vivo at 0.128 mg/kg: 68%
[3]; 0.5 h, 30 min
  inhibition in vivo at 0.032 mg/kg: 12%
  inhibition in vivo at 0.128 mg/kg: 68%
[3]; 1 h, 60 min
  inhibition in vivo at 0.032 mg/kg: 12%
  inhibition in vivo at 0.128 mg/kg: 61%
[3]; 2 h, 120 min
  inhibition in vivo at 0.032 mg/kg: 0%
  inhibition in vivo at 0.128 mg/kg: 61%
[3]; 3 h, 180 min
  inhibition in vivo at 0.032 mg/kg: 0%
  inhibition in vivo at 0.128 mg/kg: 45%
[3]; 4 h, 240 min
  inhibition in vivo at 0.128 mg/kg: 39%

## Cc1cccc(C(=O)Oc2ccc(C(O)CNC(C)(C)C)cc2OC(=O)c2cccc(C)c2)c1 (stereo not drawn) [Example 112, 3,4-bis(m-toluyloxy)-alpha-(tert-butylaminomethyl)benzyl alcohol]
[1]; 5 min, 5 min
  inhibition in vivo at 0.068 mg/kg: 38%
  inhibition in vivo at 0.137 mg/kg: 80%
  inhibition in vivo at 0.274 mg/kg: 80%
[1]; 0.5 h, 30 min
  inhibition in vivo at 0.068 mg/kg: 43%
  inhibition in vivo at 0.137 mg/kg: 60%
  inhibition in vivo at 0.274 mg/kg: 74%
[1]; 1 h, 60 min
  inhibition in vivo at 0.068 mg/kg: 27%
  inhibition in vivo at 0.137 mg/kg: 50%
  inhibition in vivo at 0.274 mg/kg: 57%
[1]; 2 h, 120 min
  inhibition in vivo at 0.137 mg/kg: 37%
  inhibition in vivo at 0.274 mg/kg: 54%
[1]; 3 h, 180 min
  inhibition in vivo at 0.137 mg/kg: 8%
  inhibition in vivo at 0.274 mg/kg: 33%
[1]; 4 h, 240 min
  inhibition in vivo at 0.274 mg/kg: 38%
[1]; 4.5 h, 270 min
  inhibition in vivo at 0.274 mg/kg: 25%
[2]; carbachol (Doryl) 1:5 million
  ED50: 4.4 µg (base)
[2]
  Duration, Mean: 104.1 ± 34.9 min
[3]; 5 min, 5 min
  inhibition in vivo at 0.068 mg/kg: 50%
  inhibition in vivo at 0.136 mg/kg: 42%
[3]; 10 min, 10 min
  inhibition in vivo at 0.068 mg/kg: 0%
  inhibition in vivo at 0.136 mg/kg: 59%
[3]; 0.5 h, 30 min
  inhibition in vivo at 0.136 mg/kg: 67%
[3]; 1 h, 60 min
  inhibition in vivo at 0.136 mg/kg: 53%
[3]; 2 h, 120 min
  inhibition in vivo at 0.136 mg/kg: 0%
